Data: the NIST ThermoML archive (doi:10.1016/j.jct.2019.05.015)
“And” between values parts separate entries of the source, which are not always exact repeats. Equal values may be shown once.

Key:
[1] = for Normal melting temperature: Crystal, DTA; for Glass transition temperature: DSC
[2] = Molar enthalpy of transition or fusion; settings: Crystal; DSC
[3] = molar heat capacity at constant pressure; settings: 101.33 kPa, DSC

Oc1ccc2ccccc2c1 [2-hydroxynaphthalene]
Settings	Molar enthalpy of transition or fusion [kcal/mol]	Normal melting temperature [°C]
[1]	–	121.2
[2]	5.35	–

Nc1ccc2ccccc2c1 [2-naphthalenamine]
Settings	Molar enthalpy of transition or fusion [kcal/mol]	Normal melting temperature [°C]
[1]	–	109.5
[2]	5.32	–

Nc1cccc2ccccc12 [1-naphthalenamine]
Settings	Molar enthalpy of transition or fusion [kcal/mol]	Normal melting temperature [°C]
[1]	–	48.2
[2]	3.46	–

Oc1cccc(O)c1 [1,3-benzenediol]
Settings	Molar enthalpy of transition or fusion [kcal/mol]	Normal melting temperature [°C]
[1]	–	109.1
[2]	4.82	–

molar heat capacity at constant pressure [J/K/mol], [3]
Settings	233 K	253 K	273 K	293 K	303 K	313 K	323 K	333 K	343 K	363 K
Crystal	103.9	114.4	124.9	135.3	–	145.8	–	156.3	–	–
Metastable liquid	–	–	–	–	237.2	–	245.8	–	254.3	262.9

Cc1ccc(O)cc1 [4-methylphenol]
Settings	Molar enthalpy of transition or fusion [kcal/mol]	Normal melting temperature [°C]
[1]	–	34.8
[2]	2.81	–

Oc1ccc2c(O)cccc2c1 [1,6-dihydroxynaphthalene]
Settings	Glass transition temperature [°C]	Molar enthalpy of transition or fusion [kcal/mol]	Normal melting temperature [°C]
[1]	32	–	137.1
[2]	–	6.17	–

[3]
Settings	molar heat capacity at constant pressure
218 K, Glass	131.4 J/K/mol
238 K, Glass	147.4 J/K/mol
243 K, Crystal	149.1 J/K/mol
258 K, Glass	163.5 J/K/mol
263 K, Crystal	161.4 J/K/mol
283 K, Crystal	173.7 J/K/mol
303 K, Crystal	186 J/K/mol
323 K, Crystal	197.9 J/K/mol and 198.4 J/K/mol
323 K, Metastable liquid	311.2 J/K/mol
343 K, Crystal	210.6 J/K/mol and 210.7 J/K/mol
343 K, Metastable liquid	315.6 J/K/mol
363 K, Crystal	223.2 J/K/mol and 223 J/K/mol
363 K, Metastable liquid	319.9 J/K/mol
383 K, Crystal	235.9 J/K/mol
383 K, Metastable liquid	324.3 J/K/mol
403 K, Metastable liquid	328.7 J/K/mol

Nc1ccc(Cl)cc1 [4-chlorobenzenamine]
Settings	Molar enthalpy of transition or fusion [kcal/mol]	Normal melting temperature [°C]
[1]	–	70
[2]	4.71	–

Oc1cccc2ccccc12 [1-naphthol]
Settings	Molar enthalpy of transition or fusion [kcal/mol]	Normal melting temperature [°C]
[1]	–	94.8
[2]	5.23	–

Nc1cccc(N)c1 [1,3-benzenediamine]
Settings	Glass transition temperature [°C]	Molar enthalpy of transition or fusion [kcal/mol]	Normal melting temperature [°C]
[1]	-29	–	63.0
[2]	–	3.71	–

[3]
Settings	molar heat capacity at constant pressure [J/K/mol]
223 K, Crystal	108.9
243 K, Crystal	121.4
253 K, Metastable liquid	207.5
263 K, Crystal	133.8
273 K, Metastable liquid	213.4
283 K, Crystal	146.2
293 K, Metastable liquid	219.3
303 K, Crystal	158.7
313 K, Metastable liquid	225.2
323 K, Metastable liquid	229.7
333 K, Metastable liquid	231.2
343 K, Liquid	234
353 K, Liquid	237.1
363 K, Liquid	240.2
